Read-outs that look alike come from different tables or passages of the source.
Legend:
endogenous TFEB = experiment: TFEB nuclear translocation, immunocytochemistry high-content imaging; format: cell-based; details: PKIS2 primary screening
endogenous TFE3 = experiment: TFE3 nuclear translocation, immunocytochemistry high-content imaging; format: cell-based; details: PKIS2 primary screening
SH-SY5Y cells [1] = experiment: Chemotype enrichment analysis of PKIS2 primary screen hit categories; details: PKIS2 primary screening, hit category
SH-SY5Y cells [2] = details: PKIS2 primary screening
Text: The PKIS2 Library was supplied by The Structural Genomics Consortium at the University of North Carolina at Chapel Hill.

SH-SY5Y cells [3] = experiment: AK (adenylate kinase) release ToxiLight cytotoxicity assay; details: PKIS2 primary screening; note: reference of the scale not given here
SH-SY5Y cells [4] = experiment: Nuclear count from microscopy images (cellular growth and toxicity); details: PKIS2 primary screening; note: reference of the scale not given here
Throughout, for DQ Intensity: reference of the scale not given here.
Throughout, for DQ Spot: reference of the scale not given here.

Row | SMILES | TFEB % (endogenous TFEB) [%] | TFE3 % (endogenous TFE3) [%] | Outcome (SH-SY5Y cells [1]) | DQ Intensity (SH-SY5Y cells [2]; DQ Red BSA intensity) | DQ Spot (SH-SY5Y cells [2]; DQ Red BSA spot count) | AK (SH-SY5Y cells [3]) | Nuclear Count (SH-SY5Y cells [4]) | DQ Intensity (SH-SY5Y cells [2]) | DQ Spot (SH-SY5Y cells [2])
1 | c1ccc(Oc2ccc(Nc3ccnc4ccc(-c5ccccn5)cc34)cc2)cc1 [UNC10225215A] | 9.01 | 13.98 | LYSO TOXIC | 94.87 | 78.82 | 106.19 | 111.99 | – | –
2 | c1ccc(-c2ccnc3[nH]ccc23)cc1 [UNC10225337A] | 6.67 | 8.32 | TOXIC | 103.32 | 96.87 | 289.20 | 120.86 | – | –
3 | Nc1nccc2scc(-c3ccc4c(c3)CCN4C(=O)Cc3ccccc3)c12 [UNC10225119A] | 5.51 | 4.70 | LYSO TOXIC | 60.09 | 72.10 | 128.12 | 119.23 | – | –
4 | COc1cccc(-c2cc(-c3c[nH]nc3-c3ccccn3)ccn2)c1 [UNC10225448A] | 6.19 | 7.93 | LYSO TOXIC | 60.35 | 69.14 | 109.46 | 116.22 | – | –
5 | Cl.Cl.NCC(NC(=O)c1cc(-c2cccnc2)c(-c2ccnc3[nH]ccc23)s1)c1ccccc1 (stereo not shown) [UNC10225315A] | 2.45 | 8.64 | – | 78.29 | 90.57 | 87.17 | 113.28 | – | –
6 | COc1ccc(Nc2nccc(N3CCC(NC(=O)Nc4cc(C)ccc4C)C3)n2)cc1 (stereo not shown) [GSK1379741] | 3.59 | 9.28 | – | 91.14 | 90.28 | 100.67 | 115.70 | – | –
7 | O=C(Nc1cccc(-c2nn3ccccc3c2-c2ccnc(Nc3cccc(C(F)(F)F)c3)n2)c1)c1c(F)cccc1F [UNC10225325A] | 6.17 | 14.69 | – | – | – | 71.36 | 61.45 | 102.24 | 131.00
8 | Cc1ccc2c(-c3ccnc(Nc4ccc(C(F)(F)F)cc4)n3)cnn2n1 [UNC10225224A] | 10.89 | 15.88 | – | – | – | 79.85 | 89.44 | 85.12 | 93.95
9 | CN(C)c1ncnc2nc[nH]c12 [UNC10243858A] | 5.99 | 16.40 | – | – | – | 79.19 | 91.65 | 152.14 | 119.94
10 | CCn1c(-c2nonc2N)nc2c(C#CC(C)(C)O)nc(OCCN)cc21.Cl.Cl [UNC10225460A] | 9.06 | 15.40 | – | – | – | 78.09 | 55.94 | 74.51 | 103.98
11 | Nc1nccc(-c2c(-c3ccc(F)cc3)ncn2C2CCN(Cc3ccccc3)CC2)n1 [UNC10225058A] | 3.25 | 7.38 | – | – | – | 75.20 | 98.98 | 142.65 | 129.81
12 | COC(=O)c1cccc(NC(=O)NC2CCN(c3ccnc(Nc4ccc(F)cc4)n3)C2)c1 (stereo not shown) [GSK1379725] | 7.57 | 21.26 | – | 80.47 | 88.32 | 90.74 | 95.32 | – | –
13 | Cc1ccc(NC(=O)Nc2ccccc2)cc1-c1ccc(C(=O)Nc2ccncc2)cc1 [UNC10224992A] | 8.91 | 19.70 | – | – | – | 119.72 | 89.66 | 74.41 | 94.75
14 | O=C(NCCNc1ccnc(Nc2ccc(F)cc2)n1)c1cc2ccccc2s1 [GSK1379874] | 5.88 | 18.78 | – | 94.35 | 110.46 | 71.16 | 89.16 | – | –

— publication PMC9851200, “Multiparameter phenotypic screening for endogenous TFEB and TFE3 translocation identifies novel chemical series modulating lysosome function” (Autophagy, 2022)
